Results reported in patent US20230047816A1 (priority 2018, published 2023).

Experiments:
Cln7Aex2 mice = Cln7Aex2 mice in vivo (cortex pathology, hindlimb paralysis)
[1] = system: neurons from Cln7 knock out (KO) mice; assay: In vitro model of Batten disease, active Caspase-3 Western blot; format: cell-based, mouse; settings: 10 nM, 24 hours
Protocol: Primary cultures of C57BL/6J WT and Cln7Δex2 mice cortical neurons were prepared from fetal animals of 14.5 days of gestation, seeded at 1.8·10^5 cells/cm2 in plastic plates coated with poly-D-lysine […] and incubated in Neurobasal (Life Technologies) supplemented with 2 mM glutamine, 5 mM of glucose, 0.25 mM pyruvate and 2% B27 supplement (Life Technologies). Cells were incubated at 37° C. in a humidified 5% CO2-containing atmosphere. At 72 hours after plating, medium was replaced using Neurobasal (Life Technologies) supplemented with 2 mM glutamine, 5 mM glucose, 0.25 mM pyruvate and 2% B27 supplement (Life Technologies) minus antioxidants (MAO; i.e., lacking vitamin E, vitamin E acetate, superoxide dismutase, catalase, and glutathione). Six days after the plating medium was replaced again. Cells were used at day 9.
Neurons were incubated with 10 nM or vehicle for 24 hours and apoptosis was evaluated by measuring the level of active Caspase-3 form using Western blot. Neurons were lysed in RIPA buffer (2% sodium dodecylsulphate, 2 mM EDTA, 2 mM EGTA and 50 mM Tris pH 7.5), supplemented with protease and phosphatase inhibitor cocktail (100 μM phenylmethylsulfonyl fluoride, 50 μg/ml antipapain, 50 μg/ml pepstatin, 50 μg/ml amastatin, 50 μg/ml leupeptin, 50 μg/ml bestatin, 1 mM o-vanadate, 50 mM NaF, and 50 μg/ml soybean trypsin inhibitor) and boiled for 5 min. […]

[2] = system: Caenorhabditis elegans N2; assay: C. elegans life span in 96 well microtiter plates; format: in vivo; settings: strain N2
Excerpt: The test of AZ67 compound had been made according to protocol disclosed in Solis, G. M., Petrascheck, M. Measuring Caenorhabditis elegans

[3] = Cln7Aex2 mice in vivo, FIGS. 15A-15C

Structure (SMILES): Cc1noc(C)c1Cn1cc(C#N)c2cc(Oc3ccc(NC(=O)[C@@H]4CCCN4)cc3)ccc21 [AZ67, (2S)-N-[4-({3-cyano-1-[(3,5-dimethyl-1,2-oxazol-4-yl)methyl]-1H-indol-5-yl}oxy)phenyl]pyrrolidine-2-carboxamide]
- accumulation of SCMAS in the cortex (Cln7Aex2 mice; [3]): prevented the accumulation
- accumulation of lipofuscin in the cortex (Cln7Aex2 mice; [3]): prevented the accumulation
- accumulation of reactive astroglia in the cortex (Cln7Aex2 mice; [3]): prevented the accumulation
- hindlimb paralysis (Cln7Aex2 mice; Cln7Aex2 mice, FIG. 15D): prevented
- apoptosis level (active Caspase-3) [1]: significantly reduced
- % LS change ([2]; Conc 10 uM, set AI): −8%
- Lifespan ([2]; Conc 10 uM, set AI): 18.81 days
- % LS change ([2]; Conc 100 uM, set AI): 24%
- Lifespan ([2]; Conc 100 uM, set AI): 25.45 days
- % LS change ([2]; conc 10, set Aib): 15%
- Lifespan ([2]; conc 10, set Aib): 25.98 days
- % LS change ([2]; conc 100, set Aib): 22%
- Lifespan ([2]; conc 100, set Aib): 27.47 days
